Reference: patent US20050037989A1, “Inhibition of gene function by delivery of polynucleotide-based gene expression inhibitors to mammalian cells in vivo” (priority 2001, published 2005)
d = 2'-deoxy (DNA); r = 2'-OH (RNA)

Tests used:
[1] = tested on: HMGCR mRNA in primary hepatocytes; experiment: HMGCR mRNA in primary hepatocytes cultured with anti-HMGCR siRNA and/or atorvastatin (qPCR); format: cell-based, C57B6 mice; details: siRNA alone, 24 hours
Description: qPCR assays. Quantitative, real-time PCR was performed using the Bio-Rad icycler system and iCycler reagents as recommended by the manufacturer. The primers used to amplify HMGCR sequences were SEQ ID 17 and SEQ ID 31.
Total RNA from these cells was isolated and transcribed into cDNA using an oligo-dT primer and reverse transcriptase. Subsequently, HMGCR levels were assayed using quantitative, real-time PCR.

[2] = tested on: mouse HMG CoA reductase mRNA; experiment: Serum triglyceride levels after tail vein injection of siRNA against HMG CoA reductase; format: in vivo, Apoetm1Unc mice; details: for Triglyceride levels: absorbance at 520 nm
Description: Group A (series2) mice (5 mice) were each injected with 50 μg of an siRNA directed against mouse HMG CoA reductase mRNA. Group B (Series 1) mice (5 mice) were an uninjected control group. Group A and Group B animals were bled 7 days before, 2 days after, 4 days after, and 7 days after the injection. Serum samples were stored at −20° C. until all timepoints had been collected. Each group's serum samples from a given time-point were pooled prior to the triglyceride assays. Triglyceride assays were performed in quintuplicate.
A total of 50 μg of siRNA-HMGCR was dissolved in 2.2 ml Ringer's solution (147 mM NaCl, 4 mM KCl, 1.13 mM CaCl2), and injected into the tail vein of ApoE (−/−) mice over 7-12 seconds. Control mice were not injected and are referred to here as naive. Each mouse was bled from the retro-orbital sinus at various times prior to and after injection. Cells and clotting factors were pelleted from the blood to obtain serum. The serum triglyceride levels were then assayed by a enzymatic, colorimetric assay using the Infinity Triglyceride Reagent (Sigma Co.).
Triglyceride assays. Serum samples were diluted 1:100 in the Infinity Triglyceride Reagent (2 μl in 200 μl) in a clear, 96-well plate. Each assay plate was then incubated at 37° C. for five minutes, removed and allowed to cool to room temperature. Absorbance was measured at 520 nm using a SpectraMax Plus plate reader (Molecular Devices, Inc). Background absorbance (no serum added) was subtracted from each reading and the resulted data was plotted versus timepoint.

With “siRNA-HMGCR: annealed oligomers SEQ ID 25 and SEQ ID 26, positions 2324-2344 of murine HMG CoA reductase reading frame (Examples 16, 18) (chain 1 ACAUUGUCACUGCUAUCUATT; chain 2 UAGAUAGCAGUGACAAUGUTT; sugars from the 5' end r19 d2, backbone not given here; listed as Mus musculus)” the “HMGCR mRNA, % of that seen in control cells” value [1] was “approximately 20%”, the “triglyceride levels (in words)” value ([2]; 50 μg siRNA tail vein, after 7 days) was “returned to normal levels” and the triglyceride levels reduced ([2]; 50 μg siRNA tail vein, after two days) was 62%. For the same substance, the triglyceride levels reduced ([2]; 50 μg siRNA tail vein, second value, printed again as after two days) was 56%, the Triglyceride levels ([2]; day +2, pooled serum) was 0.082 ± 0.006 and the Triglyceride levels ([2]; day +4, pooled serum) was 0.095 ± 0.005. The Triglyceride levels ([2]; day +7, pooled serum) was 0.189 ± 0.012 and the Triglyceride levels ([2]; day −7 (before injection), pooled serum) was 0.218 ± 0.008.
